Earlier results as cited in patent US6025374A, “Azetidine, pyrrolidine and piperidine derivatives as 5HT1 receptor agonists” (Merck Sharp & Dohme, Ltd., priority 1994, dated 2000).

Conditions: therapeutic doses; literature

Structure (SMILES): CNS(=O)(=O)Cc1ccc2[nH]cc(CCN(C)C)c2c1 [sumatriptan]
- adverse events in humans: certain adverse cardiovascular events
